The record followed here is patent US10913772B2, “Peptide for preventing or treating inflammatory diseases and use thereof” (KINE SCIENCES Co., Ltd., priority 2016, dated 2021).

The subject of series [1] is collagen-induced arthritis (CIA) mouse model. As to the kind of experiment: Arthritis progression index in collagen-induced arthritis mouse model. In kind it is in vivo, mouse (DBA/1J). Also on record: key: 0-4 per leg, summed over four legs (0-16), mean of two observers. The conditions noted are these: Table 3, methotrexate 1 mg/kg. As to the method:
In Example 2, using a collagen-induced arthritis mouse model in the following document, a therapeutic effect of a RGD dimer for a representative inflammatory disease, rheumatoid arthritis was confirmed (Nat Protoc. 2007; 2(5):1269-75.).
A collagen-induced arthritis (CIA) mouse model was prepared as follows, as an autoimmune disease-based arthritis model with characteristics similar to human rheumatoid arthritis.
First, a bovine type II collagen (Chondrex Corporation, USA) and a Freund's complete adjuvant (Chondrex Corporation, USA) were mixed at a ratio of 1:1 and emulsified, and then 50 μl of the emulsified collagen solution was injected intradermally into the tail of a 6-week-old DBA/1J mouse to induce primary immunization. At two weeks after the primary immunization, the bovine type II collagen and the Freund's complete adjuvant were mixed at a ratio of 1:1 and emulsified, and then 50 μl of the emulsified collagen solution was injected intradermally into the tail of the mouse again to induce secondary immunization (boosting).
After the secondary immunization, from the next day, the peptide of the present invention ([…] (1 μmole)) was administered intraperitoneally three times a week and a PBS-treated group was used as a control (Vehicle control). The preparation process of the collagen-induced arthritis mouse model and the administration time of the peptide were schematically illustrated in FIG. 1.
In order to investigate the development of arthritis progression according to the peptide treatment of the present invention, the deepening degree of arthritis with time was measured by evaluating an arthritis progression index. Two observers who were unaware of the specific experimental conditions evaluated progression of arthritis three times a week. In this case, the arthritis progression index was evaluated by 0 to 4 scores per leg according to an arthritis progression evaluation standard by Rossoliniec and the like in Table 1 below to be represented by a total of 0 to 16 scores (a sum of four legs), and thereafter, two observers calculated an average value of the evaluated results to digitize the severity of arthritis.
In order to confirm the efficacy for each treatment concentration of the peptide according to the present invention, by using the same method as Example 2-2, an arthritis therapeutic effect according to the peptide treatment at various concentrations (0.1 μmole, 1 μmole, and 10 μmole) was evaluated by the arthritis progression index.
Methotrexate (MTX), one of drugs which are used as arthritis therapeutic agents in a current clinical practice, had excellent anti-inflammatory and arthritis therapeutic effects as an immunodepressant, but may have side effects such as toxicity to normal cells, oral ulcer, alopecia, interstitial pneumonia, bone marrow suppression, and the like. As a result, the methotrexate is known as a drug that needs to pay close attention after medication with sufficient medication counseling. As a result, the arthritis therapeutic effect according to the peptide treatment at various concentrations was compared with that of the case of treating methotrexate (1 mg/kg).

The nature of series [2]: Evaluation of toxicity: mortality and change in body weight of mouse. In kind it is in vivo. The conditions noted are these: for Body weight: i.p., individual mice. As to the method:
In Example 3, in order to confirm the toxicity of the peptide of the present invention, the RGD dimer was intraperitoneally administered to mouse at various concentrations (0.1 μmole, 1 μmole, and 10 μmole), and then the mortality and a change in body weight of each mouse were measured. On the other hand, as a control, a non-administration group (Normal) and a PBS-treated group (PBS) were used.

Several values for one entry are separate records, joined by “and”; a condition that tells them apart may be missing. Equal values may be shown once. No end group written: not given here.

In the case of `CN(Cc1cnc2nc(N)nc(N)c2n1)c1ccc(C(=O)N[C@@H](CCC(=O)O)C(=O)O)cc1` [MTX, methotrexate], the arthritis progression index in series [1] (day 20) is reported as 0.8; in series [1] (day 22) it was 0.8; in series [1] (day 24), 1.0; in series [1] (day 27) it was 1.2; in series [1] (day 29) it was 1.4; in series [1] (day 31) it was 1.8. In addition, the arthritis progression index in series [1] (day 34) turned out to be 1.8; in series [1] (day 36), 3.2.

Take RDGRDG [RDG dimer, RDGRDG]: the “mortality of the mouse” value in series [2] (0.1 μmole, 1 μmole or 10 μmole, intraperitoneally) is given as “not observed”. Further, the Body weight is 23.74 g and 20.75 g and 18.48 g in series [2] (10 umole, day 17); 23.8 g and 21.9 g and 20.5 g in series [2] (10 umole, day 21); 24.2 g and 22 g and 20.1 g in series [2] (10 umole, day 24); 23.8 g and 21.6 g and 20.5 g in series [2] (10 umole, day 27); 23.9 g and 22 g in series [2] (10 umole, day 31); 24.8 g and 22.3 g in series [2] (10 umole, day 34). Moreover, the Body weight in series [2] (first group printed 1 umole, day 17) is 21.65 g and 24.51 g and 18.25 g and 21.88 g and 22.3 g and 21.96 g and 18.84 g; in series [2] (first group printed 1 umole, day 21) it was 21.8 g and 24.5 g and 18.4 g and 21.5 g and 22 g (2×) and 19.6 g; in series [2] (first group printed 1 umole, day 24) it was 21.8 g and 24.9 g and 18.2 g and 22.4 g and 22.8 g and 21.3 g and 20.6 g; in series [2] (first group printed 1 umole, day 27) it was 22.2 g and 25 g and 18.1 g and 22.7 g and 22.9 g and 21.3 g and 20.5 g; in series [2] (first group printed 1 umole, day 31) it was 22.4 g and 25.3 g and 18.8 g and 22.3 g and 22.6 g and 21.2 g and 20.7 g; in series [2] (first group printed 1 umole, day 34), 23.1 g (2×) and 26.1 g and 19 g and 23 g and 22.6 g and 21.8 g. In addition, the Body weight is 22.7 g (2×) and 21.3 g and 18.96 g and 20.63 g and 20.61 g and 21.07 g in series [2] (second group printed 1 umole, day 17); 22.3 g and 22.4 g and 19.6 g and 20.6 g and 21.1 g and 21.3 g and 22.6 g in series [2] (second group printed 1 umole, day 21); 23.9 g and 22.2 g and 20 g and 20.8 g and 21.4 g and 21.7 g and 23.2 g in series [2] (second group printed 1 umole, day 24); 24.4 g and 22.3 g and 20.1 g and 21.2 g and 21.3 g and 21.7 g and 23.3 g in series [2] (second group printed 1 umole, day 27); 22.6 g and 22.7 g and 20.2 g and 20.1 g and 21.3 g and 22.2 g and 23.4 g in series [2] (second group printed 1 umole, day 31); 23 g and 23.6 g and 20.5 g and 18.6 g and 20.6 g and 22.5 g and 24.2 g in series [2] (second group printed 1 umole, day 34). For the same molecule, the “difference in body weight from the control” value in series [2] (all the concentrations (0.1, 1 and 10 μmole), intraperitoneally) is “did not have a large difference”.
